Measurements taken from patent US6914045B2, “Glycopeptide antibiotics” (Wyeth Holdings Corporation, priority 2001, dated 2005).
In brackets after ≈: the same amount, converted by molar mass. Values belong to the molecule of their own block, whether it stands above or below them.

Assays:
Enterococcus sp. = experiment: in vitro antibacterial evaluation, MIC by broth dilution; assay type: cell-based; conditions: broth dilution, 18 hours at 35° C.
In short: (§1)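 Read-out: the lowest concentration at which the test strain fails to grow. Serial dilutions (64-0.06 μg/mL) in Muller-Hinton II […], 5×10^5 CFU/mL inoculum, NCCLS M7-A2 procedure.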

Streptococcus sp. = experiment: as above; assay type: cell-based; conditions: broth dilution, 18 hours at 35° C.
In short: as §1

Staphylococcus sp. = experiment: as above; assay type: cell-based; conditions: broth dilution, 18 hours at 35° C.; for MIC Staphylococcus aureus (ATCC 29213): strain ATCC 29213; for MIC Staphylococcus aureus (GC 1131): strain GC 1131; for MIC Staphylococcus aureus (GC 3051): strain GC 3051; for MIC Staphylococcus aureus (GC 3053): strain GC 3053; for MIC Staphylococcus aureus (GC 4541): strain GC 4541; for MIC Staphylococcus aureus (GC 4542): strain GC 4542; for MIC Staphylococcus aureus-SMITH (GC 4543): strain GC 4543; for MIC Staphylococcus aureus (GC 4544): strain GC 4544; for MIC Staphylococcus aureus (GC 4545): strain GC 4545; for MIC Staphylococcus haemolyticus (GC 4546): strain GC 4546; for MIC Coagulase Negative Staphylococcus (GC 4547): strain GC 4547; for MIC Coagulase Negative Staphylococcus (GC 4548): strain GC 4548; for MIC Coagulase Negative Staphylococcus (GC 4549): strain GC 4549; for MIC Coagulase Negative Staphylococcus (GC 4551): strain GC 4551; for MIC Coagulase Negative Staphylococcus (GC 6257): strain GC 6257
In short: as §1

[1] = anatomic pathology (histopathology of heart and kidney) in mice; assay type: in vivo; conditions: CD-1 mice, 20 mg/kg intravenously daily for 9 days, necropsy day 10, microscopic histopathology
Procedure: Samples of tissues from necropsied mice were formalin-fixed, paraffin-embedded, sectioned, stained with hematoxylin and eosin, and examined microscopically. Histopathologic findings were recorded. These findings were subjectively graded on a scale corresponding to slight, mild, moderate, marked and severe as compared to untreated controls.

Escherichia coli = experiment: in vitro antibacterial evaluation, MIC by broth dilution; assay type: cell-based; conditions: 18 hours at 35° C.
In short: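 Broth dilution MIC per NCCLS M7-A2 in Mueller-Hinton II medium, inoculum 5×10^5 CFU/mL, antibiotic range 64-0.06 μg/mL. MIC taken as lowest concentration inhibiting growth.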

[2] = Enterococcus faecalis (ATCC 29212)
[3] = Enterococcus faecalis (GC 4552)
[4] = Enterococcus faecalis (GC 4553)
[5] = Enterococcus faecalis (GC 4554)
[6] = Enterococcus faecalis (GC 6189)

MIC Enterococcus avium (GC 4558) (Enterococcus sp.; Enterococcus avium (GC 4558)): 128 µg/mL (≈ 96 µM)
MIC Enterococcus faecalis (ATCC 29212) (Enterococcus sp.; [2]): >128 µg/mL
MIC Enterococcus faecalis (GC 4552) (Enterococcus sp.; [3]): >128 µg/mL
MIC Enterococcus faecalis (GC 4553) (Enterococcus sp.; [4]): >128 µg/mL
MIC Enterococcus faecalis (GC 4554) (Enterococcus sp.; [5]): >128 µg/mL
MIC Enterococcus faecalis (GC 6189) (Enterococcus sp.; [6]): >128 µg/mL
MIC Enterococcus faecium (GC 2243) (Enterococcus sp.; Enterococcus faecium (GC 2243)): >128 µg/mL
MIC Enterococcus faecium (GC 4556) (Enterococcus sp.; Enterococcus faecium (GC 4556)): >128 µg/mL
MIC Enterococcus faecium (GC 4557) (Enterococcus sp.; Enterococcus faecium (GC 4557)): 128 µg/mL (≈ 96 µM)
MIC Enterococcus avium (GC 4558) (Enterococcus sp.): 128 µg/mL (≈ 96 µM)
MIC Enterococcus faecalis (ATCC 29212) (Enterococcus sp.): >128 µg/mL
MIC Enterococcus faecalis (GC 2242) (Enterococcus sp.): >128 µg/mL
MIC Enterococcus faecalis (GC 2691) (Enterococcus sp.): >128 µg/mL
MIC Enterococcus faecalis (GC 3059) (Enterococcus sp.): >128 µg/mL
MIC Enterococcus faecalis (GC 4552) (Enterococcus sp.): >128 µg/mL
MIC Enterococcus faecalis (GC 4553) (Enterococcus sp.): >128 µg/mL
MIC Enterococcus faecalis (GC 4554) (Enterococcus sp.): >128 µg/mL
MIC Enterococcus faecalis (GC 6189) (Enterococcus sp.): >128 µg/mL
MIC Enterococcus faecium (GC 2243) (Enterococcus sp.): >128 µg/mL
MIC Enterococcus faecium (GC 4556) (Enterococcus sp.): >128 µg/mL
MIC Enterococcus faecium (GC 4557) (Enterococcus sp.): 128 µg/mL (≈ 96 µM)
MIC Enterococcus faecalis (GC 2242) (Enterococcus sp.; strain GC 2242): >128 µg/mL
MIC Enterococcus faecalis (GC 2691) (Enterococcus sp.; strain GC 2691): >128 µg/mL
MIC Enterococcus faecalis (GC 3059) (Enterococcus sp.; strain GC 3059): >128 µg/mL
MIC Streptococcus agalactiae (GC 4564) (Streptococcus sp.): 128 µg/mL (≈ 96 µM)
MIC Streptococcus pneumoniae (ATCC 6301) (Streptococcus sp.): >128 µg/mL
MIC Streptococcus pneumoniae (GC 1894) (Streptococcus sp.): 128 µg/mL (≈ 96 µM)
MIC Streptococcus pneumoniae (GC 4565) (Streptococcus sp.): >128 µg/mL
MIC Streptococcus pyogenes (GC 4563) (Streptococcus sp.): >128 µg/mL
MIC Streptococcus pneumoniae (ATCC 6301) (Streptococcus sp.; strain ATCC 6301): >128 µg/mL
MIC Streptococcus pneumoniae (GC 1894) (Streptococcus sp.; strain GC 1894): 128 µg/mL (≈ 96 µM)
MIC Streptococcus pyogenes (GC 4563) (Streptococcus sp.; strain GC 4563): >128 µg/mL
MIC Streptococcus agalactiae (GC 4564) (Streptococcus sp.; strain GC 4564): 128 µg/mL (≈ 96 µM)
MIC Streptococcus pneumoniae (GC 4565) (Streptococcus sp.; strain GC 4565): >128 µg/mL
MIC Staphylococcus aureus (ATCC 29213) (Staphylococcus sp.): >128 µg/mL
MIC Staphylococcus aureus (GC 1131) (Staphylococcus sp.): >128 µg/mL
MIC Staphylococcus aureus (GC 3051) (Staphylococcus sp.): >128 µg/mL
MIC Staphylococcus aureus (GC 3053) (Staphylococcus sp.): >128 µg/mL
MIC Staphylococcus aureus (GC 4541) (Staphylococcus sp.): >128 µg/mL
MIC Staphylococcus aureus (GC 4542) (Staphylococcus sp.): >128 µg/mL
MIC Staphylococcus aureus-SMITH (GC 4543) (Staphylococcus sp.): >128 µg/mL
MIC Staphylococcus aureus (GC 4544) (Staphylococcus sp.): >128 µg/mL
MIC Staphylococcus aureus (GC 4545) (Staphylococcus sp.): >128 µg/mL
MIC Coagulase Negative Staphylococcus (GC 4547) (Staphylococcus sp.): >128 µg/mL
MIC Coagulase Negative Staphylococcus (GC 4548) (Staphylococcus sp.): >128 µg/mL
MIC Coagulase Negative Staphylococcus (GC 4549) (Staphylococcus sp.): >128 µg/mL
MIC Coagulase Negative Staphylococcus (GC 4551) (Staphylococcus sp.): >128 µg/mL
MIC Coagulase Negative Staphylococcus (GC 6257) (Staphylococcus sp.): >128 µg/mL
MIC Escherichia coli (ATCC 25922) (Escherichia coli): >128 µg/mL
MIC Escherichia coli (GC 4559) (Escherichia coli): >128 µg/mL
MIC Escherichia coli (GC 4560) (Escherichia coli): >128 µg/mL
Structure (SMILES): CN=C1N(C)CC(CC2NC(=O)C(Cc3ccc(OC4OC(CO)C(OC5OC(CO)C(O)C(O)C5O)C(O)C4O)cc3)NC(=O)C(C(C)c3ccccc3)NC(=O)CNC(=O)C(CO)NC(=O)C(CC3CN(C)C(=NC)N3C3OC(CO)C(O)C(O)C3O)NC2=O)N1C (stereo not drawn) [Example 74, Cyclo[3-[1,3-dimethyl-2-(methylimino)imidazolidin-4-yl]alanyl-3-[3-hexopyranosyl-1-methyl-2-(methylimino)imidazolidin-4-yl]alanylserylglycyl-β-methylphenylalanyl-O-(4-O-hexopyranosylhexopyranosyl)tyrosyl]]
MIC Staphylococcus haemolyticus (GC 4546) (Staphylococcus sp.): >128 µg/mL
Anatomical Pathology (Day 10), Heart [1]: 0
Anatomical Pathology (Day 10), Kidney [1]: 0

MIC Enterococcus avium (GC 4558) (Enterococcus sp.; Enterococcus avium (GC 4558)): 64 µg/mL (≈ 44.6 µM)
MIC Enterococcus faecalis (ATCC 29212) (Enterococcus sp.; [2]): 128 µg/mL (≈ 89.2 µM)
MIC Enterococcus faecalis (GC 4552) (Enterococcus sp.; [3]): 128 µg/mL (≈ 89.2 µM)
MIC Enterococcus faecalis (GC 4553) (Enterococcus sp.; [4]): 128 µg/mL (≈ 89.2 µM)
MIC Enterococcus faecalis (GC 4554) (Enterococcus sp.; [5]): >128 µg/mL
MIC Enterococcus faecalis (GC 6189) (Enterococcus sp.; [6]): 128 µg/mL (≈ 89.2 µM)
MIC Enterococcus faecium (GC 2243) (Enterococcus sp.; Enterococcus faecium (GC 2243)): >128 µg/mL
MIC Enterococcus faecium (GC 4556) (Enterococcus sp.; Enterococcus faecium (GC 4556)): >128 µg/mL
MIC Enterococcus faecium (GC 4557) (Enterococcus sp.; Enterococcus faecium (GC 4557)): 128 µg/mL (≈ 89.2 µM)
MIC Enterococcus avium (GC 4558) (Enterococcus sp.): 64 µg/mL (≈ 44.6 µM)
MIC Enterococcus faecalis (ATCC 29212) (Enterococcus sp.): 128 µg/mL (≈ 89.2 µM)
MIC Enterococcus faecalis (GC 2242) (Enterococcus sp.): 128 µg/mL (≈ 89.2 µM)
MIC Enterococcus faecalis (GC 2691) (Enterococcus sp.): 128 µg/mL (≈ 89.2 µM)
MIC Enterococcus faecalis (GC 3059) (Enterococcus sp.): 128 µg/mL (≈ 89.2 µM)
MIC Enterococcus faecalis (GC 4552) (Enterococcus sp.): 128 µg/mL (≈ 89.2 µM)
MIC Enterococcus faecalis (GC 4553) (Enterococcus sp.): 128 µg/mL (≈ 89.2 µM)
MIC Enterococcus faecalis (GC 4554) (Enterococcus sp.): >128 µg/mL
MIC Enterococcus faecalis (GC 6189) (Enterococcus sp.): 128 µg/mL (≈ 89.2 µM)
MIC Enterococcus faecium (GC 2243) (Enterococcus sp.): >128 µg/mL
MIC Enterococcus faecium (GC 4556) (Enterococcus sp.): >128 µg/mL
MIC Enterococcus faecium (GC 4557) (Enterococcus sp.): 128 µg/mL (≈ 89.2 µM)
MIC Enterococcus faecalis (GC 2242) (Enterococcus sp.; strain GC 2242): 128 µg/mL (≈ 89.2 µM)
MIC Enterococcus faecalis (GC 2691) (Enterococcus sp.; strain GC 2691): 128 µg/mL (≈ 89.2 µM)
MIC Enterococcus faecalis (GC 3059) (Enterococcus sp.; strain GC 3059): 128 µg/mL (≈ 89.2 µM)
MIC Streptococcus agalactiae (GC 4564) (Streptococcus sp.): 128 µg/mL (≈ 89.2 µM)
MIC Streptococcus pneumoniae (ATCC 6301) (Streptococcus sp.): 128 µg/mL (≈ 89.2 µM)
MIC Streptococcus pneumoniae (GC 1894) (Streptococcus sp.): 64 µg/mL (≈ 44.6 µM)
MIC Streptococcus pneumoniae (GC 4565) (Streptococcus sp.): 128 µg/mL (≈ 89.2 µM)
MIC Streptococcus pyogenes (GC 4563) (Streptococcus sp.): 128 µg/mL (≈ 89.2 µM)
MIC Streptococcus pneumoniae (ATCC 6301) (Streptococcus sp.; strain ATCC 6301): 128 µg/mL (≈ 89.2 µM)
MIC Streptococcus pneumoniae (GC 1894) (Streptococcus sp.; strain GC 1894): 64 µg/mL (≈ 44.6 µM)
MIC Streptococcus pyogenes (GC 4563) (Streptococcus sp.; strain GC 4563): 128 µg/mL (≈ 89.2 µM)
MIC Streptococcus agalactiae (GC 4564) (Streptococcus sp.; strain GC 4564): 128 µg/mL (≈ 89.2 µM)
MIC Streptococcus pneumoniae (GC 4565) (Streptococcus sp.; strain GC 4565): 128 µg/mL (≈ 89.2 µM)
MIC Staphylococcus aureus (ATCC 29213) (Staphylococcus sp.): >128 µg/mL
MIC Staphylococcus aureus (GC 1131) (Staphylococcus sp.): >128 µg/mL
MIC Staphylococcus aureus (GC 3051) (Staphylococcus sp.): >128 µg/mL
MIC Staphylococcus aureus (GC 3053) (Staphylococcus sp.): >128 µg/mL
MIC Staphylococcus aureus (GC 4541) (Staphylococcus sp.): >128 µg/mL
MIC Staphylococcus aureus (GC 4542) (Staphylococcus sp.): >128 µg/mL
MIC Staphylococcus aureus-SMITH (GC 4543) (Staphylococcus sp.): >128 µg/mL
MIC Staphylococcus aureus (GC 4544) (Staphylococcus sp.): >128 µg/mL
MIC Staphylococcus aureus (GC 4545) (Staphylococcus sp.): >128 µg/mL
MIC Coagulase Negative Staphylococcus (GC 4547) (Staphylococcus sp.): 128 µg/mL (≈ 89.2 µM)
MIC Coagulase Negative Staphylococcus (GC 4548) (Staphylococcus sp.): >128 µg/mL
MIC Coagulase Negative Staphylococcus (GC 4549) (Staphylococcus sp.): >128 µg/mL
MIC Coagulase Negative Staphylococcus (GC 4551) (Staphylococcus sp.): >128 µg/mL
MIC Coagulase Negative Staphylococcus (GC 6257) (Staphylococcus sp.): >128 µg/mL
MIC Escherichia coli (ATCC 25922) (Escherichia coli): >128 µg/mL
MIC Escherichia coli (GC 4559) (Escherichia coli): >128 µg/mL
MIC Escherichia coli (GC 4560) (Escherichia coli): 32 µg/mL (≈ 22.3 µM)
Structure (SMILES): CC(c1ccccc1)C1NC(=O)CNC(=O)C(CO)NC(=O)C(C(O)C2CN(Cc3ccc4ccccc4c3)C(=N)N2C2OC(CO)C(O)C(O)C2O)NC(=O)C(C(O)C2CNC(=N)N2)NC(=O)C(Cc2ccc(OC3OC(CO)C(OC4OC(CO)C(O)C(O)C4O)C(O)C3O)cc2)NC1=O (stereo not drawn) [Example 67, Cyclo[glycyl-β-methylphenylalanyl-O-(4-O-hexopyranosylhexoyranosyl)tyrosyl-3-(2-iminoimidazolidin-4-yl)seryl-3-[3-hexopyranosyl-2-imino-1-(2-naphthylmethyl)-imidazolidin-4-yl]-serylseryl]]
MIC Staphylococcus haemolyticus (GC 4546) (Staphylococcus sp.): >128 µg/mL
Anatomical Pathology (Day 10), Heart [1]: 0
Anatomical Pathology (Day 10), Kidney [1]: 0
